Experimental findings from ChEMBL document CHEMBL5518224, “Rational Design of PARP1/c-Met Dual Inhibitors for Overcoming PARP1 Inhibitor Resistance Induced by c-Met Overexpression” (J Med Chem, 2024) are described below.

A word on the IC50: it is the concentration that inhibits the measured activity by half.

The target of data set [1] is Poly [ADP-ribose] polymerase 1 (Homo sapiens, UniProt P09874). Nature of the data set: Inhibition of PARP1 (unknown origin) using histone as substrate incubated for 45 mins by absorbance based analysis.
Sequence of Poly [ADP-ribose] polymerase 1 (P09874 whole entry): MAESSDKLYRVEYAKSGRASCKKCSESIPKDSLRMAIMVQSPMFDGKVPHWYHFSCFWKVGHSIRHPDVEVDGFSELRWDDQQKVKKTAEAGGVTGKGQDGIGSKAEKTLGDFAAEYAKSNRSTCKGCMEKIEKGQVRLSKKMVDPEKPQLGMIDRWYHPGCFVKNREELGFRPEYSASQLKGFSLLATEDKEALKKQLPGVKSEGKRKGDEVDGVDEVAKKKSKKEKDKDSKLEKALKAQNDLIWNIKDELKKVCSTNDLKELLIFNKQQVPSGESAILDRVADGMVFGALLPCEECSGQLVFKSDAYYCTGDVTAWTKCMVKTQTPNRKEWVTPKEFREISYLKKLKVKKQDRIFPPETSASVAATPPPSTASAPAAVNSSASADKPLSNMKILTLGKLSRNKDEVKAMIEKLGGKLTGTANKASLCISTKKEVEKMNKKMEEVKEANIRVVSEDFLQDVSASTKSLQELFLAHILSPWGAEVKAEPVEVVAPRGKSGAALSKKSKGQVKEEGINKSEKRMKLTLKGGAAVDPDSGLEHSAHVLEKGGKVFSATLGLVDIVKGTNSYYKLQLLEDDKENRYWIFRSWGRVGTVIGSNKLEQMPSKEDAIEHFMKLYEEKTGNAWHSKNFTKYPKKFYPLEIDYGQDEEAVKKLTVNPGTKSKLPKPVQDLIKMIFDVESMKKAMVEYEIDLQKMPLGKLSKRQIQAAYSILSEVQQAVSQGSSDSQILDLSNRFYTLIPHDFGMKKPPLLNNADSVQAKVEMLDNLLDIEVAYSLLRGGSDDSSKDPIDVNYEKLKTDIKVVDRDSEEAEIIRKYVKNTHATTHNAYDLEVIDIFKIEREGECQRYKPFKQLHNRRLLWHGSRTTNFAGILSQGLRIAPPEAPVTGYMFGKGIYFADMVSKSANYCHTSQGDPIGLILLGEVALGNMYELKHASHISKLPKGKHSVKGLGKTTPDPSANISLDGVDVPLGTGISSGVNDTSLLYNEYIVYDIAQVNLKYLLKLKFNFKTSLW
Data set [2] addresses Hepatocyte growth factor receptor (Homo sapiens, UniProt P08581). The data set is described as follows: Inhibition of c-Met (unknown origin) by HTRF method.
The subject of data set [3] is MDA-MB-231. Nature of the data set: Antiproliferative activity against human MDA-MB-231 cells harboring wild type BRCA and c-Met amplification assessed as inhibition of cell growth incubated for 7 days by MTT assay. The format is functional, cell-based. The conditions noted are these: MDA-MB-231, 168 h. A general note: Tetrazolium assays rely on reduction of a dye to a coloured formazan, in cell work by metabolically active cells.

In data set [4] the test system is MDA-MB-468. The data set is described as follows: Antiproliferative activity against human MDA-MB-468 cells harboring wild type BRCA1/2, HR-proficient and non-c-Met amplification assessed as inhibition of cell growth incubated for 7 days by MTT assay. Particulars: MDA-MB-468, 168 h. The data set is classed as functional, cell-based.
The nature of data set [5]: Antiproliferative activity against human Olaparib-resistant HCC1937 cells harboring BRCA1 mutant and PARP1 overexpression assessed as inhibition of cell growth incubated for 7 days by MTT assay. The data set is classed as functional, cell-based. The conditions noted are these: Olaparib-resistant HCC1937, 168 h.
In data set [6] the test system is Olaparib-resistant HCT116. Nature of the data set: Antiproliferative activity against human Olaparib-resistant HCT116 cells harboring BRCA2 mutant assessed as inhibition of cell growth incubated for 7 days by MTT assay. The data set is classed as functional, cell-based. The conditions noted are these: Olaparib-resistant HCT116, 168 h.
Data set [7] concerns MDA-MB-231. Nature of the data set: Potency index, ratio of olaparib IC50 to test compound IC50 for antiproliferative activity against human MDA-MB-231 cells harboring wild type BRCA and c-Met amplification assessed as inhibition of cell growth incubated for 7 days by MTT assay. The format is functional. The conditions noted are these: time 7 day.
Data set [8] is described as follows: Cytotoxicity against NRK cells assessed as inhibition of cell growth incubated for 72 hrs by MTT assay. The data set is classed as toxicity, cell-based. The conditions noted are these: rat.
Data set [9] concerns MDA-MB-468. Nature of the data set: Potency index, ratio of olaparib IC50 to test compound IC50 for antiproliferative activity against human MDA-MB-468 cells harboring wild type BRCA1/2, HR-proficient and non-c-Met amplification assessed as inhibition of cell growth incubated for 7 days by MTT assay. The format is functional. Particulars: time 7 day.
The subject of data set [10] is MDA-MB-468. Nature of the data set: Potency index, ratio of crizotinib IC50 to test compound IC50 for antiproliferative activity against human MDA-MB-468 cells harboring wild type BRCA1/2, HR-proficient and non-c-Met amplification assessed as inhibition of cell growth incubated for 7 days by MTT assay. The data set is classed as functional. The conditions noted are these: time 7 day.

A short description of data set [11]: Potency index, ratio of olaparib IC50 to test compound IC50 for antiproliferative activity against human Olaparib-resistant HCC1937 cells harboring BRCA1 mutant and PARP1 overexpression assessed as inhibition of cell growth incubated for 7 days by MTT assay. The format is functional. Particulars: time 7 day.
For data set [12], the system named is Olaparib-resistant HCT116. The data set is described as follows: Potency index, ratio of olaparib IC50 to test compound IC50 for antiproliferative activity against human Olaparib-resistant HCT116 cells harboring BRCA2 mutant assessed as inhibition of cell growth incubated for 7 days by MTT assay. The data set is classed as functional. Particulars: time 7 day.

Data set [13] concerns MDA-MB-231. The data set is described as follows: Induction of apoptosis in human MDA-MB-231 cells assessed as live cells at 0.5 uM incubated for 4 days by Annexin V-FITC/PI staining based flow cytometry analysis (reference value: 94.6%). The format is functional. Particulars: time 4 day. Background: In flow cytometry, cells or beads pass a laser one at a time.
Data set [14] relates to MDA-MB-231. Nature of the data set: Induction of apoptosis in human MDA-MB-231 cells assessed as early apoptotic cells at 0.5 uM incubated for 4 days by Annexin V-FITC/PI staining based flow cytometry analysis (reference value: 3.88%). The data set is classed as functional. The conditions noted are these: time 4 day.
Data set [15] relates to MDA-MB-231. The data set is described as follows: Induction of apoptosis in human MDA-MB-231 cells assessed as late apoptotic cells at 0.5 uM incubated for 4 days by Annexin V-FITC/PI staining based flow cytometry analysis (reference value: 0.81%). The data set is classed as functional. Particulars: time 4 day.
Data set [16] deals with MDA-MB-231. The data set is described as follows: Induction of apoptosis in human MDA-MB-231 cells assessed as dead cells at 0.5 uM incubated for 4 days by Annexin V-FITC/PI staining based flow cytometry analysis (reference value: 0.72%). The data set is classed as functional. Particulars: time 4 day.
For data set [17], the system named is MDA-MB-231. Nature of the data set: Induction of apoptosis in human MDA-MB-231 cells assessed as live cells at 1 uM incubated for 4 days by Annexin V-FITC/PI staining based flow cytometry analysis (reference value: 94.6%). The data set is classed as functional. Particulars: time 4 day.
In data set [18] the test system is MDA-MB-231. The data set is described as follows: Induction of apoptosis in human MDA-MB-231 cells assessed as early apoptotic cells at 1 uM incubated for 4 days by Annexin V-FITC/PI staining based flow cytometry analysis (reference value: 3.88%). The format is functional. Particulars: time 4 day.
Data set [19] relates to MDA-MB-231. The data set is described as follows: Induction of apoptosis in human MDA-MB-231 cells assessed as late apoptotic cells at 1 uM incubated for 4 days by Annexin V-FITC/PI staining based flow cytometry analysis (reference value: 0.81%). The format is functional. Particulars: time 4 day.
The test system of data set [20] is MDA-MB-231. The data set is described as follows: Induction of apoptosis in human MDA-MB-231 cells assessed as dead cells at 1 uM incubated for 4 days by Annexin V-FITC/PI staining based flow cytometry analysis (reference value: 0.72%). The data set is classed as functional. The conditions noted are these: time 4 day.

Sequence of Hepatocyte growth factor receptor (P08581 whole entry): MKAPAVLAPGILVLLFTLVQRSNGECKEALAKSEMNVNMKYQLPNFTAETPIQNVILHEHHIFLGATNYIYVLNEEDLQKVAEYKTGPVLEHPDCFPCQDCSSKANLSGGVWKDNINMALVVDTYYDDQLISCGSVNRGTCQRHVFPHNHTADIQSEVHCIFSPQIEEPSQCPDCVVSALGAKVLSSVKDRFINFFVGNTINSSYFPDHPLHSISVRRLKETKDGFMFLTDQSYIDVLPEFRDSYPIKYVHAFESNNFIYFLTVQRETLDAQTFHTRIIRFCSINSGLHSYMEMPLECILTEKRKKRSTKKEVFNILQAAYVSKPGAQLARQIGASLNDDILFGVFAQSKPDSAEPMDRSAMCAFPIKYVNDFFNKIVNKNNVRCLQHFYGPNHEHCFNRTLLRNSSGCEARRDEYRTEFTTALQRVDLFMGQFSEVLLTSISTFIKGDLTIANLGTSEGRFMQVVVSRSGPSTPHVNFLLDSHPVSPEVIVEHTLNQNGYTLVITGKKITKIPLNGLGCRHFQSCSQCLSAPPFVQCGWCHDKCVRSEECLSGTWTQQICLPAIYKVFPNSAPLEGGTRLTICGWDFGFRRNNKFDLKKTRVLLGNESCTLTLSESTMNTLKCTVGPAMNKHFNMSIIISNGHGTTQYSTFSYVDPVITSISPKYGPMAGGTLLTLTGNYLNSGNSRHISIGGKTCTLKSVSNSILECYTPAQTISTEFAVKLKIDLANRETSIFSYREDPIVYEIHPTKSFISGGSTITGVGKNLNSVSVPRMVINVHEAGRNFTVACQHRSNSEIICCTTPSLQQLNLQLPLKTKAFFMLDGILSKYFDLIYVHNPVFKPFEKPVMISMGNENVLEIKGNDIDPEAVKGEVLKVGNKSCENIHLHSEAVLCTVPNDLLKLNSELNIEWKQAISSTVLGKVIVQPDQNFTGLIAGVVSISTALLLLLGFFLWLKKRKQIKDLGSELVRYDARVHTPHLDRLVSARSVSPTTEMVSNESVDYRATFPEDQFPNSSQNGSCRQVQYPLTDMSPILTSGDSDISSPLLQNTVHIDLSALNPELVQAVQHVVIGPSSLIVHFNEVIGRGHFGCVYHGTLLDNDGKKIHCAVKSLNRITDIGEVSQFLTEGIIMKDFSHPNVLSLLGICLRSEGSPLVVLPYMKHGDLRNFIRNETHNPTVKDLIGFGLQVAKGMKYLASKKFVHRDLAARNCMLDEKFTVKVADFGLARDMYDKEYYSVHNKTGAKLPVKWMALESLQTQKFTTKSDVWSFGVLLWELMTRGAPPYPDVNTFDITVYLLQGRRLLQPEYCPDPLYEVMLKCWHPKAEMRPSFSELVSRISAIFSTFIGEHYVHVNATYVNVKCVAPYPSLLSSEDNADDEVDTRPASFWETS

For `O=C(c1cc(Cc2n[nH]c(=O)c3ccccc23)ccc1F)N1CCN(c2ccc3c(OCCn4nc(-c5cccnc5)ccc4=O)ccnc3c2)CC1`, the IC50 worked out at 3.3 nM in data set [1]; 32.2 nM in data set [2]; 45 nM in [3]; 170 nM in data set [4]; 4570 nM in data set [5]; 5330 nM in [6]. The “Ratio IC50” value stood at 680 in data set [7]; 54 in data set [9]; 26 in data set [10]; 4 in [11]; 10 in data set [12]. Further, the IC50 at 72 h in data set [8] came to 8730 nM. In addition, the Activity in [13] came to 78.5%; in data set [14], 8.46%; in data set [15] it was 8.09%; in data set [16] it was 5%; in data set [17] it was 67.2%; in data set [18] it was 15.8%. In addition, the results for the Activity in [19] and in data set [20] were 10.6% and 6.37%, respectively.
